Laboratory results as given in patent US20230143604A1, “QW DOSING OF GIP RECEPTOR AGONIST PEPTIDE COMPOUNDS AND USES THEREOF” (TAKEDA PHARMACEUTICAL COMPANY LIMITED, priority 2020, published 2023).
Starred links: 1 amine or outer side, 2 acyl side, 3 side chain; linkers in the order of their positions; H or OH if unused. Non-standard residues stand in square brackets, D forms with d. Residues, ends and D or L forms follow the SMILES beside them. Groups on a side chain read outwards from the residue. *: point of attachment. C18 diacid = O=C(O)CCCCCCCCCCCCCCCCC(=O)*; γGlu = O=C(O)[C@H](CCC(=O)[*:2])N[*:1]; NMeY = CN[C@@H](Cc1ccc(O)cc1)C(=O)O; AEEA = NCCOCCOCC(=O)O; Aib = CC(C)(N)C(=O)O

Test: Solubility in phosphate buffer pH 7.4
In short: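 3 mg of peptide treated with 100 μL portions of 200 mM phosphate buffer pH 7.4, sonicating/vortexing up to 1 min, with further buffer added until fully dissolved. Solubility then quantified by HPLC.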

SMILES | solubility (pH 7.4, aqueous buffer) [mg/mL] | also measured
CC[C@H](C)[C@H](NC(=O)[C@H](CCCNC(=N)N)NC(=O)[C@H](CC(=O)O)NC(=O)[C@H](CC(C)C)NC(=O)[C@H](C)NC(=O)[C@@H](NC(=O)[C@H](CO)NC(=O)[C@H](Cc1ccc(O)cc1)NC(=O)[C@H](CC(=O)O)NC(=O)[C@H](CO)NC(=O)[C@@H](NC(=O)[C@H](Cc1ccccc1)NC(=O)[C@@H](NC(=O)CNC(=O)[C@H](CCC(=O)O)NC(=O)C(C)(C)NC(=O)[C@H](Cc1ccc(O)cc1)NC)[C@@H](C)O)[C@@H](C)CC)[C@@H](C)CC)C(=O)N[C@@H](C)C(=O)N[C@@H](CCC(N)=O)C(=O)N[C@@H](CCC(N)=O)C(=O)N[C@@H](CCCCNC(=O)COCCOCCNC(=O)COCCOCCNC(=O)CC[C@H](NC(=O)CC[C@H](NC(=O)CCCCCCCCCCCCCCCCC(=O)O)C(=O)O)C(=O)O)C(=O)N[C@@H](Cc1ccccc1)C(=O)N[C@H](C(=O)N[C@@H](CC(N)=O)C(=O)N[C@@H](Cc1c[nH]c2ccccc12)C(=O)N[C@@H](CC(C)C)C(=O)N[C@@H](CC(C)C)C(=O)N[C@@H](C)C(=O)N[C@@H](CCC(N)=O)C(=O)N[C@@H](CO)C(=O)N1CCC[C@H]1C(=O)N[C@@H](CO)C(=O)N[C@@H](CO)C(=O)NCC(=O)N[C@@H](C)C(=O)N1CCC[C@H]1C(=O)N1CCC[C@H]1C(=O)N1CCC[C@H]1C(=O)N[C@@H](CO)C(=O)O)C(C)C [Compound 177] (H-[NMeY][Aib]EGTFISDYSIALDRIAQQK([AEEA-AEEA-γGlu-γGlu-C18 diacid])FVNWLLAQSPSSGAPPPS-OH) |  | solubility (pH 7.4, aqueous buffer, pH 7.4 Phosphate Buffer - Solubility, 200 mM Phosphate buffer pH 7.4): ≥ 30 mg/mL; solubility (pH 7.4, solubility in phosphate buffer at pH 7.4, 200 mM phosphate buffer pH 7.4): ≥ 15 mg/mL
CC[C@H](C)[C@H](NC(=O)[C@H](CO)NC(=O)[C@H](Cc1ccc(O)cc1)NC(=O)[C@H](CC(=O)O)NC(=O)[C@H](CO)NC(=O)[C@@H](NC(=O)[C@H](Cc1ccccc1)NC(=O)[C@@H](NC(=O)CNC(=O)[C@H](CCC(=O)O)NC(=O)C(C)(C)NC(=O)[C@H](Cc1ccc(O)cc1)NC)[C@@H](C)O)[C@@H](C)CC)C(=O)N[C@@H](C)C(=O)N[C@@H](CC(C)C)C(=O)N[C@@H](CC(=O)O)C(=O)N[C@@H](CCCNC(=N)N)C(=O)N[C@@H](C)C(=O)N[C@@H](C)C(=O)N[C@@H](CCC(N)=O)C(=O)N[C@@H](CCC(N)=O)C(=O)N[C@@H](CCCCNC(=O)COCCOCCNC(=O)COCCOCCNC(=O)CC[C@H](NC(=O)CC[C@H](NC(=O)CCCCCCCCCCCCCCCCC(=O)O)C(=O)O)C(=O)O)C(=O)N[C@@H](Cc1ccccc1)C(=O)N[C@H](C(=O)N[C@@H](CC(N)=O)C(=O)N[C@@H](Cc1c[nH]c2ccccc12)C(=O)N[C@@H](CC(C)C)C(=O)N[C@@H](CC(C)C)C(=O)N[C@@H](C)C(=O)N[C@@H](CCC(N)=O)C(=O)N[C@@H](CO)C(=O)N1CCC[C@H]1C(=O)NCC(=O)O)C(C)C [Compound 178] (H-[NMeY][Aib]EGTFISDYSIALDRAAQQK([AEEA-AEEA-γGlu-γGlu-C18 diacid])FVNWLLAQSPG-OH) | ≥ 30 | solubility (pH 7.4): ≥ 15 mg/mL
CC[C@H](C)[C@H](NC(=O)[C@H](CCCNC(=N)N)NC(=O)[C@H](CC(=O)O)NC(=O)[C@H](CCCCNC(=O)CNC(=O)CNC(=O)CNC(=O)CNC(=O)CNC(=O)CCCCCCCCCCCCCCCCC(=O)O)NC(=O)[C@H](C)NC(=O)[C@@H](NC(=O)[C@H](CO)NC(=O)[C@H](Cc1ccc(O)cc1)NC(=O)[C@H](CC(=O)O)NC(=O)[C@H](CO)NC(=O)[C@@H](NC(=O)[C@H](Cc1ccccc1)NC(=O)[C@@H](NC(=O)CNC(=O)[C@H](CCC(=O)O)NC(=O)C(C)(C)NC(=O)[C@H](Cc1ccc(O)cc1)NC)[C@@H](C)O)[C@@H](C)CC)[C@@H](C)CC)C(=O)N[C@@H](C)C(=O)N[C@@H](CCC(N)=O)C(=O)N[C@@H](CCCNC(=N)N)C(=O)N[C@@H](CC(N)=O)C(=O)N[C@@H](Cc1ccccc1)C(=O)N[C@H](C(=O)N[C@@H](CCC(=O)O)C(=O)N[C@@H](Cc1c[nH]c2ccccc12)C(=O)N[C@@H](CC(C)C)C(=O)N[C@@H](CC(C)C)C(=O)N[C@@H](C)C(=O)N[C@@H](CCC(N)=O)C(=O)N[C@@H](CO)C(=O)N1CCC[C@H]1C(=O)NCC(=O)O)C(C)C [Compound 180] |  | solubility (pH 7.4): ≥ 15 mg/mL
CC[C@H](C)[C@H](NC(=O)[C@H](CO)NC(=O)[C@H](Cc1ccc(O)cc1)NC(=O)[C@H](CC(=O)O)NC(=O)[C@H](CO)NC(=O)[C@@H](NC(=O)[C@H](Cc1ccccc1)NC(=O)[C@@H](NC(=O)CNC(=O)[C@H](CCC(=O)O)NC(=O)[C@@H](C)NC(=O)[C@H](Cc1ccc(O)cc1)NC)[C@@H](C)O)[C@@H](C)CC)C(=O)N[C@@H](C)C(=O)N[C@@H](CC(C)C)C(=O)N[C@@H](CC(=O)O)C(=O)N[C@@H](CCCNC(=N)N)C(=O)N[C@H](C(=O)N[C@@H](Cc1c[nH]cn1)C(=O)N[C@@H](CCC(N)=O)C(=O)N[C@@H](CCC(N)=O)C(=O)N[C@@H](CC(N)=O)C(=O)N[C@@H](Cc1ccccc1)C(=O)N[C@H](C(=O)N[C@@H](CC(N)=O)C(=O)N[C@@H](Cc1c[nH]c2ccccc12)C(=O)N[C@@H](CC(C)C)C(=O)N[C@@H](CC(C)C)C(=O)N[C@@H](C)C(=O)N[C@@H](CCC(N)=O)C(=O)N[C@@H](CCCCNC(=O)COCCOCCNC(=O)COCCOCCNC(=O)CC[C@H](NC(=O)CCCCCCCCCCCCCCCCC(=O)O)C(=O)O)C(=O)O)C(C)C)[C@@H](C)CC [Compound 243] (H-[NMeY][dA]EGTFISDYSIALDRIHQQNFVNWLLAQK([AEEA-AEEA-γGlu-C18 diacid])-OH; N-terminus and C-terminus assumed) | ≥ 7 | 
CC[C@H](C)[C@H](NC(=O)[C@H](CO)NC(=O)[C@H](Cc1ccc(O)cc1)NC(=O)[C@H](CC(=O)O)NC(=O)[C@H](CO)NC(=O)[C@@H](NC(=O)[C@H](Cc1ccccc1)NC(=O)[C@@H](NC(=O)CNC(=O)[C@H](CCC(=O)O)NC(=O)C(C)(C)NC(=O)[C@H](Cc1ccc(O)cc1)NC(C)=O)[C@@H](C)O)[C@@H](C)CC)C(=O)N[C@@H](C)C(=O)N[C@@H](CC(C)C)C(=O)N[C@@H](CC(=O)O)C(=O)N[C@@H](CCCNC(=N)N)C(=O)N[C@H](C(=O)N[C@@H](Cc1c[nH]cn1)C(=O)N[C@@H](CCC(N)=O)C(=O)N[C@@H](CCC(N)=O)C(=O)N[C@@H](CC(N)=O)C(=O)N[C@@H](Cc1ccccc1)C(=O)N[C@H](C(=O)N[C@@H](CC(N)=O)C(=O)N[C@@H](Cc1c[nH]c2ccccc12)C(=O)N[C@@H](CC(C)C)C(=O)N[C@@H](CC(C)C)C(=O)N[C@@H](C)C(=O)N[C@@H](CCC(N)=O)C(=O)N[C@@H](CCCCNC(=O)COCCOCCNC(=O)COCCOCCNC(=O)CC[C@H](NC(=O)CCCCCCCCCCCCCCCCC(=O)O)C(=O)O)C(=O)O)C(C)C)[C@@H](C)CC [Compound 244] (Ac-Y[Aib]EGTFISDYSIALDRIHQQNFVNWLLAQK([AEEA-AEEA-γGlu-C18 diacid])-OH; C-terminus assumed) | ≥ 9.4 | 
CC[C@H](C)[C@H](NC(=O)[C@H](CO)NC(=O)[C@H](Cc1ccc(O)cc1)NC(=O)[C@H](CC(=O)O)NC(=O)[C@H](CO)NC(=O)[C@@H](NC(=O)[C@H](Cc1ccccc1)NC(=O)[C@@H](NC(=O)CNC(=O)[C@H](CCC(=O)O)NC(=O)C(C)(C)NC(=O)[C@H](Cc1ccc(O)cc1)NC)[C@@H](C)O)[C@@H](C)CC)C(=O)N[C@@H](C)C(=O)N[C@@H](CCCCNC(=O)COCCOCCNC(=O)COCCOCCNC(=O)CC[C@H](NC(=O)CCCCCCCCCCCCCCCCC(=O)O)C(=O)O)C(=O)N[C@@H](CC(=O)O)C(=O)N[C@@H](CCCNC(=N)N)C(=O)N[C@H](C(=O)N[C@@H](Cc1c[nH]cn1)C(=O)N[C@@H](CCC(N)=O)C(=O)N[C@@H](CCC(N)=O)C(=O)N[C@@H](CC(N)=O)C(=O)N[C@@H](Cc1ccccc1)C(=O)N[C@H](C(=O)N[C@@H](CC(N)=O)C(=O)N[C@@H](Cc1c[nH]c2ccccc12)C(=O)N[C@@H](CC(C)C)C(=O)N[C@@H](CC(C)C)C(=O)N[C@@H](C)C(=O)N[C@@H](CCC(N)=O)C(=O)N[C@@H](CCCCN)C(=O)O)C(C)C)[C@@H](C)CC [Compound 245] (H-[NMeY][Aib]EGTFISDYSIAK([AEEA-AEEA-γGlu-C18 diacid])DRIHQQNFVNWLLAQK-OH; C-terminus assumed) | ≥ 7.5 | 
CC[C@H](C)[C@H](NC(=O)[C@H](CO)NC(=O)[C@H](Cc1ccc(O)cc1)NC(=O)[C@H](CC(=O)O)NC(=O)[C@H](CO)NC(=O)[C@@H](NC(=O)[C@H](Cc1ccccc1)NC(=O)[C@@H](NC(=O)CNC(=O)[C@H](CCC(=O)O)NC(=O)C(C)(C)NC(=O)[C@H](Cc1ccc(O)cc1)NC)[C@@H](C)O)[C@@H](C)CC)C(=O)N[C@@H](C)C(=O)N[C@@H](CC(C)C)C(=O)N[C@@H](CC(=O)O)C(=O)N[C@@H](CCCNC(=N)N)C(=O)N[C@@H](CCCCNC(=O)COCCOCCNC(=O)COCCOCCNC(=O)CC[C@H](NC(=O)CCCCCCCCCCCCCCCCC(=O)O)C(=O)O)C(=O)N[C@@H](Cc1c[nH]cn1)C(=O)N[C@@H](CCC(N)=O)C(=O)N[C@@H](CCC(N)=O)C(=O)N[C@@H](CC(N)=O)C(=O)N[C@@H](Cc1ccccc1)C(=O)N[C@H](C(=O)N[C@@H](CC(N)=O)C(=O)N[C@@H](Cc1c[nH]c2ccccc12)C(=O)N[C@@H](CC(C)C)C(=O)N[C@@H](CC(C)C)C(=O)N[C@@H](C)C(=O)N[C@@H](CCC(N)=O)C(=O)N[C@@H](CCCCN)C(=O)O)C(C)C [Compound 246] (H-[NMeY][Aib]EGTFISDYSIALDRK([AEEA-AEEA-γGlu-C18 diacid])HQQNFVNWLLAQK-OH; C-terminus assumed) | ≥ 0.7 | 
CC[C@H](C)[C@H](NC(=O)[C@H](CO)NC(=O)[C@H](Cc1ccc(O)cc1)NC(=O)[C@H](CC(=O)O)NC(=O)[C@H](CO)NC(=O)[C@@H](NC(=O)[C@H](Cc1ccccc1)NC(=O)[C@@H](NC(=O)CNC(=O)[C@H](CCC(=O)O)NC(=O)C(C)(C)NC(=O)[C@H](Cc1ccc(O)cc1)NC)[C@@H](C)O)[C@@H](C)CC)C(=O)N[C@@H](C)C(=O)N[C@@H](CC(C)C)C(=O)N[C@@H](CC(=O)O)C(=O)N[C@@H](CCCNC(=N)N)C(=O)N[C@H](C(=O)N[C@@H](Cc1c[nH]cn1)C(=O)N[C@@H](CCC(N)=O)C(=O)N[C@@H](CCCCNC(=O)COCCOCCNC(=O)COCCOCCNC(=O)CC[C@H](NC(=O)CCCCCCCCCCCCCCCCC(=O)O)C(=O)O)C(=O)N[C@@H](CC(N)=O)C(=O)N[C@@H](Cc1ccccc1)C(=O)N[C@H](C(=O)N[C@@H](CC(N)=O)C(=O)N[C@@H](Cc1c[nH]c2ccccc12)C(=O)N[C@@H](CC(C)C)C(=O)N[C@@H](CC(C)C)C(=O)N[C@@H](C)C(=O)N[C@@H](CCC(N)=O)C(=O)N[C@@H](CCCCN)C(=O)O)C(C)C)[C@@H](C)CC [Compound 247] (H-[NMeY][Aib]EGTFISDYSIALDRIHQK([AEEA-AEEA-γGlu-C18 diacid])NFVNWLLAQK-OH; C-terminus assumed) | ≥ 9.9 | 
